Test results published in patent US9468654B1, “Drug delivery compositions and methods” (WILKES UNIVERSITY, priority 2014, dated 2016).

Format: physicochemical
From the text: Referring to FIGS. 1A and B, differential scanning calorimetry thermographs compare the melting of (1A) lysine and (1B) a lysine-based drug delivery composition, according to this example. […] These observations, further confirmed with Raman spectroscopy and x-ray powder diffraction, are consistent with the nanosizing effect on melting point and thermal stability of crystals due to the increased surface to volume ratio.

NCCCC[C@H](N)C(=O)O [lysine]
onset decomposition temperature (thermal stability): about 257 °C
